Experimental data as given in patent publication US7811352B2, “Fertilizer compositions and methods of using” (priority 2005, dated 2010).

What was measured:
Type in all cases: in vivo
Bermuda grass [1] = assay: Phytotoxicity rating, Bermuda grass fairway (Example 10); conditions: scale 0-5, 5=worst
From the text: (§1) In this Example, the effect of a fertilizer comprising lysine on warm season turfgrass growth was examined. The effects of lysine (HCl) and LIQUID LYSINE on a common type of golf course fairway quality turfgrass (Bermuda grass) were compared with those of urea and Milorganite.
(§2) Fifteen fertilizer treatments comprising three concentrations of each fertilizer composition (Milorganite (N—P—K, 6-2-0), urea (N—P—K, 46-0-0), LIQUID LYSINE (N—P—K, 10-2-1), and both granular and aqueous lysine (HCl) (N—P—K, 15-2-1)) were prepared and applied to 4 replications of Bermuda grass. The aqueous lysine (HCl) was dissolved in water prior to application. Each fertilizer treatment was applied in concentrations of 0.5 lb N/1000 ft^2/month, 1.0 lb N/1000 ft^2/month and 3.0 lb N/1000 ft^2/month. The urea, LIQUID LYSINE and aqueous lysine (HCl) were applied as foliar liquids, while Milorganite and granular lysine (HCl) were applied as granular fertilizers Plot size was 1 m×2 m set up as a randomized complete block. Plots were mowed at 0.5 inches before fertilizer application. Irrigation (0.15 inch) was applied following application. Plots were rated for turfgrass quality and color (scale of 1-10 where 10=dark green turf, 1=dead/brown turf, and 6=minimally acceptable turf) and phytotoxicity (scale of 0-5, where 5=worst, and 2=minimally objectionable) throughout the study period. Quality, color, and phytotoxicity were measured on 2 days before application (day −2) and day 2, day 5, day 15 and day 21 after application. All data was subject to statistical analysis and significant means were determined. Average turfgrass quality ratings for the treatments are presented in Table 9 and the quality results for application rates of 1.0 lb N/1000 ft^2/month are graphically presented in FIG. 4.

Bermuda grass [2] = assay: Turfgrass quality and color ratings, Bermuda grass fairway (Example 10); set-up: key: 1-10; 10 = dark green turf, 1 = dead/brown, 6 = minimally acceptable; conditions: scale 1-10
From the text: as §1, §2

[3] = test system: creeping bentgrass for greens; assay: Turfgrass quality and color ratings, creeping bentgrass for greens (Example 12); conditions: scale 1-10
From the text: In this Example, the effect of a fertilizer comprising lysine on turfgrass growth was examined. The effects of lysine (HCl) and LIQUID LYSINE on a common type of golf course greens quality turfgrass (creeping bentgrass for greens) were compared with those of CoRoN® brand fertilizer (commercially available from Helena Chemical Co., Collierville, Tenn.).
Nine fertilizer treatments comprising three concentrations of each fertilizer composition (Corono® (N—P—K, 14-2-14), LIQUID LYSINE (N—P—K, 10-2-1), and lysine (HCl) (N—P—K, 15-2-1)) were prepared and applied to 3 replications of creeping bentgrass for use on golf course greens. The lysine (HCl) (250 g) was dissolved in water (500 mL) prior to application. Each fertilizer treatment was applied in concentrations of 0.7 g N/m^2, 1.4 g N/m^2, and 2.8 g N/m^2. All applications were made using an Ortho Heavy Duty hand pump sprayer with all products being mixed with 126 mL of water for application. Plot size was 2 ft×6 ft set up as a randomized complete block. Irrigation was applied following application. Plots were rated for turfgrass quality and color (scale of 1-10 where 10=dark green turf, 1=dead/brown turf, and 6minimally acceptable turf) and phytotoxicity (% bum) throughout the study period. Quality, color, and phytotoxicity were measured on day 7, day 14, day 2I1, day 28, day 35, and day 42 after application. All data was subject to statistical analysis and significant means were determined.

[4] = Monthly Rate 0.5 lbs N/1000 ft^2, Day 2
[5] = Monthly Rate 0.5 lbs N/1000 ft^2, Day 5
[6] = Monthly Rate 0.5 lbs N/1000 ft^2, Day 15
[7] = Monthly Rate 0.5 lbs N/1000 ft^2, Day 21
[8] = Monthly Rate 0.5 lbs N/1000 ft^2, Day −2 (before application)
[9] = Monthly Rate 1.0 lbs N/1000 ft^2, Day 2
[10] = Monthly Rate 1.0 lbs N/1000 ft^2, Day 5
[11] = Monthly Rate 1.0 lbs N/1000 ft^2, Day 15
[12] = Monthly Rate 1.0 lbs N/1000 ft^2, Day 21
[13] = Monthly Rate 1.0 lbs N/1000 ft^2, Day −2 (before application)
[14] = Monthly Rate 3.0 lbs N/1000 ft^2, Day 2
[15] = Monthly Rate 3.0 lbs N/1000 ft^2, Day 5
[16] = Monthly Rate 3.0 lbs N/1000 ft^2, Day 15
[17] = Monthly Rate 3.0 lbs N/1000 ft^2, Day 21
[18] = Monthly Rate 3.0 lbs N/1000 ft^2, Day −2 (before application)

## NC(N)=O [Urea, urea, reference compound]
Bermuda grass [1]; [4]
  Phytotoxicity - Bermuda Grass: 0.0b
Bermuda grass [1]; [5]
  Phytotoxicity - Bermuda Grass: 0
Bermuda grass [1]; [6]
  Phytotoxicity - Bermuda Grass: 0
Bermuda grass [1]; [7]
  Phytotoxicity - Bermuda Grass: 0
Bermuda grass [1]; [8]
  Phytotoxicity - Bermuda Grass: 0
Bermuda grass [1]; [9]
  Phytotoxicity - Bermuda Grass: 0.0b
Bermuda grass [1]; [10]
  Phytotoxicity - Bermuda Grass: 0
Bermuda grass [1]; [11]
  Phytotoxicity - Bermuda Grass: 0
Bermuda grass [1]; [12]
  Phytotoxicity - Bermuda Grass: 0
Bermuda grass [1]; [13]
  Phytotoxicity - Bermuda Grass: 0
Bermuda grass [1]; [14]
  Phytotoxicity - Bermuda Grass: 0.0b
Bermuda grass [1]; [15]
  Phytotoxicity - Bermuda Grass: 0
Bermuda grass [1]; [16]
  Phytotoxicity - Bermuda Grass: 0
Bermuda grass [1]; [17]
  Phytotoxicity - Bermuda Grass: 0
Bermuda grass [1]; [18]
  Phytotoxicity - Bermuda Grass: 0
Bermuda grass [2]; [4]
  Color Ratings - Bermuda Grass: 7.4
  Quality Ratings - Bermuda Grass: 7.5ab
Bermuda grass [2]; [5]
  Color Ratings - Bermuda Grass: 7.6efg
  Quality Ratings - Bermuda Grass: 7.5cd
Bermuda grass [2]; [6]
  Color Ratings - Bermuda Grass: 7.4de
  Quality Ratings - Bermuda Grass: 7.5de
Bermuda grass [2]; [7]
  Color Ratings - Bermuda Grass: 7.6cd
  Quality Ratings - Bermuda Grass: 7.5f
Bermuda grass [2]; [8]
  Color Ratings - Bermuda Grass: 6.5
  Quality Ratings - Bermuda Grass: 6.3
Bermuda grass [2]; [9]
  Color Ratings - Bermuda Grass: 7.6
  Quality Ratings - Bermuda Grass: 7.5ab
Bermuda grass [2]; [10]
  Color Ratings - Bermuda Grass: 8.0def
  Quality Ratings - Bermuda Grass: 7.9abc
Bermuda grass [2]; [11]
  Color Ratings - Bermuda Grass: 7.3de
  Quality Ratings - Bermuda Grass: 7.6de
Bermuda grass [2]; [12]
  Color Ratings - Bermuda Grass: 7.6cd
  Quality Ratings - Bermuda Grass: 7.6ef
Bermuda grass [2]; [13]
  Color Ratings - Bermuda Grass: 6.5
  Quality Ratings - Bermuda Grass: 6.3
Bermuda grass [2]; [14]
  Color Ratings - Bermuda Grass: 8.0
  Quality Ratings - Bermuda Grass: 8.1a
Bermuda grass [2]; [15]
  Color Ratings - Bermuda Grass: 8.8ab
  Quality Ratings - Bermuda Grass: 8.3ab
Bermuda grass [2]; [16]
  Color Ratings - Bermuda Grass: 7.5cde
  Quality Ratings - Bermuda Grass: 7.9de
Bermuda grass [2]; [17]
  Color Ratings - Bermuda Grass: 7.9bcd
  Quality Ratings - Bermuda Grass: 7.8def
Bermuda grass [2]; [18]
  Color Ratings - Bermuda Grass: 6.4
  Quality Ratings - Bermuda Grass: 6.1

## Cl.NCCCC[C@H](N)C(=O)O [Lys (HCl) 15% N, L-lysine monohydrochloride]
[3]; Rate 0.7 gN/m^2, Day 7
  Color Ratings - Creeping Bentgrass: 6.0abc
  Quality Ratings - Creeping Bentgrass: 5.3a
[3]; Rate 0.7 gN/m^2, Day 14
  Color Ratings - Creeping Bentgrass: 6.0cd
  Quality Ratings - Creeping Bentgrass: 6.3cd
[3]; Rate 0.7 gN/m^2, Day 21
  Color Ratings - Creeping Bentgrass: 6.3a
  Quality Ratings - Creeping Bentgrass: 6.7a
[3]; Rate 0.7 gN/m^2, Day 28
  Color Ratings - Creeping Bentgrass: 6.3ab
  Quality Ratings - Creeping Bentgrass: 6.3a
[3]; Rate 0.7 gN/m^2, Day 35
  Color Ratings - Creeping Bentgrass: 6.3a
  Quality Ratings - Creeping Bentgrass: 6.3ab
[3]; Rate 0.7 gN/m^2, Day 42
  Color Ratings - Creeping Bentgrass: 7.3a
  Quality Ratings - Creeping Bentgrass: 7.0a
[3]; Rate 1.4 gN/m^2, Day 7
  Color Ratings - Creeping Bentgrass: 5.0c
  Quality Ratings - Creeping Bentgrass: 5.7a
[3]; Rate 1.4 gN/m^2, Day 14
  Color Ratings - Creeping Bentgrass: 5.0e
  Quality Ratings - Creeping Bentgrass: 5.7de
[3]; Rate 1.4 gN/m^2, Day 21
  Color Ratings - Creeping Bentgrass: 6.0a
  Quality Ratings - Creeping Bentgrass: 7.0a
[3]; Rate 1.4 gN/m^2, Day 28
  Color Ratings - Creeping Bentgrass: 6.7ab
  Quality Ratings - Creeping Bentgrass: 7.0a
[3]; Rate 1.4 gN/m^2, Day 35
  Color Ratings - Creeping Bentgrass: 5.7ab
  Quality Ratings - Creeping Bentgrass: 5.3cd
[3]; Rate 1.4 gN/m^2, Day 42
  Color Ratings - Creeping Bentgrass: 7.0a
  Quality Ratings - Creeping Bentgrass: 6.7a
[3]; Rate 2.8 gN/m^2, Day 7
  Color Ratings - Creeping Bentgrass: 5.3bc
  Quality Ratings - Creeping Bentgrass: 5.7a
[3]; Rate 2.8 gN/m^2, Day 14
  Color Ratings - Creeping Bentgrass: 5.0e
  Quality Ratings - Creeping Bentgrass: 5.3e
[3]; Rate 2.8 gN/m^2, Day 21
  Color Ratings - Creeping Bentgrass: 6.0a
  Quality Ratings - Creeping Bentgrass: 7.0a
[3]; Rate 2.8 gN/m^2, Day 28
  Color Ratings - Creeping Bentgrass: 6.3ab
  Quality Ratings - Creeping Bentgrass: 7.0a
[3]; Rate 2.8 gN/m^2, Day 35
  Color Ratings - Creeping Bentgrass: 5.0b
  Quality Ratings - Creeping Bentgrass: 4.3 days
[3]; Rate 2.8 gN/m^2, Day 42
  Color Ratings - Creeping Bentgrass: 6.3a
  Quality Ratings - Creeping Bentgrass: 6.7a
